Experimental findings from patent US9133148B2, “Carbamate compounds and of making and using same” (Abide Therapeutics, Inc., priority 2012, dated 2015) are described below.

Each structure is given as a SMILES string. Where only a bound is given, the exact number is not on record here.

Holding throughout (assay type): biochemical
Settings in all cases: mouse brain membrane proteome

Assay [1] addresses MAGL (Mus musculus (Mouse), UniProt O35678). Description: In vitro competitive activity-based protein profiling (FP-Rh), mouse MAGL. As to the method:
(§1) In Vitro Competitive Activity-Based Protein Profiling.
(§2) Proteomes (mouse brain membrane fraction or cell lysates) ([…], 1.0 mg/mL total protein concentration) were preincubated with varying concentrations of inhibitors at 37° C. After 30 min, FP-Rh (1.0 μL, 50 μM in DMSO) was added and the mixture was incubated for another 30 min at 37° C. Reactions were quenched with SDS loading buffer (50 μL—4×) and run on SDS-PAGE.

Assay [2] addresses FAAH (Mus musculus (Mouse), UniProt O08914). In words: In vitro competitive activity-based protein profiling (FP-Rh), mouse FAAH. As to the method:
as §1, §2

Assay [3] has as its target ABHD6 (Mus musculus (Mouse), UniProt Q8R2Y0). Description: In vitro competitive activity-based protein profiling (FP-Rh), mouse ABHD6. On the procedure:
as §1, §2

Sequence of FAAH (O08914 whole entry): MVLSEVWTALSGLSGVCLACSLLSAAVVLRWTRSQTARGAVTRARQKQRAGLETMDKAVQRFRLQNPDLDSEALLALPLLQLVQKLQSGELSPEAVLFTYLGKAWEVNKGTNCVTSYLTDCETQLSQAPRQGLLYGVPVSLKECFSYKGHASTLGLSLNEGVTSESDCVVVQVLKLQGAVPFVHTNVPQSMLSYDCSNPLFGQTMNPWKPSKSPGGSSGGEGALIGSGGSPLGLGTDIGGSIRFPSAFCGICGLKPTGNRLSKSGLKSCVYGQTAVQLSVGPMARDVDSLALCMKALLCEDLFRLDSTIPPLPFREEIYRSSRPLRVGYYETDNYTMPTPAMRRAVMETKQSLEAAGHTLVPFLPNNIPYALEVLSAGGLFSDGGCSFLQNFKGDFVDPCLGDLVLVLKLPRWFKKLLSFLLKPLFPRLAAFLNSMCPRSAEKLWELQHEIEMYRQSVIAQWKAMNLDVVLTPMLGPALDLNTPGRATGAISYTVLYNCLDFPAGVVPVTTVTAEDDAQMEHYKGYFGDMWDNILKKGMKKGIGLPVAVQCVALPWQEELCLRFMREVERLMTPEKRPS
Sequence of ABHD6 (Q8R2Y0 whole entry): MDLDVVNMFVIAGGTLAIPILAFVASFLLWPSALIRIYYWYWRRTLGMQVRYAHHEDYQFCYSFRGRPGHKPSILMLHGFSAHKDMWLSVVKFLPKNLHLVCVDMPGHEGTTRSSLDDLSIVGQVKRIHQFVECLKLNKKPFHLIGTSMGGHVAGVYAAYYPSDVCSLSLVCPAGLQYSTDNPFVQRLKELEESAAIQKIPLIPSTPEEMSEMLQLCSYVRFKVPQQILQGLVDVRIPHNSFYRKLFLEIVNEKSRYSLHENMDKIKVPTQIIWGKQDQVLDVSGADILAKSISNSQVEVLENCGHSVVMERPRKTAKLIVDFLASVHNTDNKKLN
Sequence of MAGL (O35678 whole entry): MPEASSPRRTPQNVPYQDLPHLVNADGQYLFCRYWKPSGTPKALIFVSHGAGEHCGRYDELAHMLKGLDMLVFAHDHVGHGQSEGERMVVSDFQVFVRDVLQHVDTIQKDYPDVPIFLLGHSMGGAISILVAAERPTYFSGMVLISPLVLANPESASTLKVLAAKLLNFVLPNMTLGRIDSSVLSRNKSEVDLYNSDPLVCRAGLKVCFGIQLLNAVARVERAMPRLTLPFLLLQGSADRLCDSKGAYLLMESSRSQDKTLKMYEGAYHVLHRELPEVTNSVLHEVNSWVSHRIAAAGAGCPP

What is called IC50 is the concentration at which inhibition is half-maximal. `COC(=O)C(OC(=O)N(C)CCc1ccccc1)C(F)(F)F` (stereo not drawn) [Example 7k, Methyl 3,3,3-trifluoro-2-((methyl(phenethyl)carbamoyl)oxy)propanoate]: the IC50 in assay [1] (competitive ABPP) was more than 1000 nM; in assay [2] (competitive ABPP) it was more than 10000 nM; in assay [3] (competitive ABPP) it was more than 1000 nM.

With `O=C(OC(C(F)(F)F)C(F)(F)F)N1CCN(Cc2ccc(N3CCOCC3)cc2Cl)CC1` [Example 9e, 1,1,1,3,3,3-hexafluoropropan-2-yl 4-(2-chloro-4-morpholinobenzyl)piperazine-1-carboxylate], the IC50 in assay [1] (competitive ABPP (Table 7)) is 100 to 1000 nM; in assay [2] (competitive ABPP (Table 7)), more than 5000 nM; in assay [3] (competitive ABPP (Table 7)), 100 to 1000 nM.

On to `O=C(OC(C(F)(F)F)C(F)(F)F)N1CCN(Cc2cccc(N3CCOCC3)c2)CC1` [Example 9ah, 1,1,1,3,3,3-hexafluoropropan-2-yl 4-(3-morpholinobenzyl)piperazine-1-carboxylate], for which the IC50 was less than 100 nM in assay [1] (competitive ABPP (Table 7)), more than 10000 nM in assay [2] (competitive ABPP (Table 7)) and less than 100 nM in assay [3] (competitive ABPP (Table 7)).

Regarding `COc1cc(-c2ccccc2)ccc1CN1CCN(C(=O)OC(C(F)(F)F)C(F)(F)F)CC1` [Example 11j, 1,1,1,3,3,3-hexafluoropropan-2-yl 4-[(2-methoxy-4-phenylphenyl)methyl]piperazine-1-carboxylate], the figures for the IC50 in assay [1] (competitive ABPP (Table 7)), in assay [2] (competitive ABPP (Table 7)) and in assay [3] (competitive ABPP (Table 7)) were less than 100 nM, more than 10000 nM and more than 1000 nM, respectively.

Regarding `O=C(OC(C(F)(F)F)C(F)(F)F)N1CCN(C(c2ccc(-c3ccccc3)cc2)c2ccc3c(c2)OCO3)CC1` (stereo not drawn) [Example 2g], the IC50 was more than 1000 nM in assay [1] (competitive ABPP), more than 10000 nM in assay [2] (competitive ABPP) and more than 1000 nM in assay [3] (competitive ABPP).

Turning to `O=C(OC(C(F)(F)F)C(F)(F)F)N1CCN(Cc2ccc(-c3ccccc3)cc2F)CC1` [Example 11p, 1,1,1,3,3,3-hexafluoropropan-2-yl 4-[(2-fluoro-4-phenylphenyl)methyl]piperazine-1-carboxylate], the IC50 in assay [1] (competitive ABPP (Table 7)) was less than 100 nM; in assay [2] (competitive ABPP (Table 7)), more than 10000 nM; in assay [3] (competitive ABPP (Table 7)) it was more than 1000 nM.

In the case of `O=C(OC(C(F)(F)F)C(F)(F)F)N1CCN(Cc2cccc(Cl)c2C(=O)N2CCCC2)CC1` [Example 9bg, 1,1,1,3,3,3-hexafluoropropan-2-yl 4-(3-chloro-2-(pyrrolidine-1-carbonyl)benzyl)piperazine-1-carboxylate], the IC50 in assay [1] (competitive ABPP (Table 7)) was 100 to 1000 nM; in assay [2] (competitive ABPP (Table 7)), more than 10000 nM; in assay [3] (competitive ABPP (Table 7)), more than 1000 nM.

For the compound `Cc1ccc(CN2CCN(C(=O)OC(C(F)(F)F)C(F)(F)F)CC2)cc1` [Example 9w, 1,1,1,3,3,3-hexafluoropropan-2-yl 4-(4-methylbenzyl)piperazine-1-carboxylate], the IC50 in assay [1] (competitive ABPP (Table 7)) was less than 100 nM; in assay [2] (competitive ABPP (Table 7)), more than 1250 nM; in assay [3] (competitive ABPP (Table 7)), more than 1000 nM.

Consider `Cc1cc(N2CCCC2)ccc1CN1CCN(C(=O)OC(C(F)(F)F)C(F)(F)F)CC1` [Example 9u, 1,1,1,3,3,3-hexafluoropropan-2-yl 4-(2-methyl-4-(pyrrolidin-1-yl)benzyl)piperazine-1-carboxylate], for which the IC50 is 100 to 1000 nM in assay [1] (competitive ABPP (Table 7)), more than 6250 nM in assay [2] (competitive ABPP (Table 7)) and more than 1000 nM in assay [3] (competitive ABPP (Table 7)).

`CC(C)(C)OC(=O)N1CCN(C(=O)OC(C(F)(F)F)C(F)(F)F)CC1` [Example 3d, 1-tert-butyl 4-(1,1,1,3,3,3-hexafluoropropan-2-yl)piperazine-1,4-dicarboxylate]: the results for the IC50 in assay [1] (competitive ABPP), in assay [2] (competitive ABPP) and in assay [3] (competitive ABPP) were more than 1000 nM, more than 10000 nM and more than 1000 nM, respectively.

Turning to `O=C(OC(C(F)(F)F)C(F)(F)F)N1CCN(Cc2ccc(N3CCCC3)cc2OC(F)(F)F)CC1` [Example 9ap, 1,1,1,3,3,3-hexafluoropropan-2-yl 4-(4-(pyrrolidin-1-yl)-2-(trifluoromethoxy)benzyl)piperazine-1-carboxylate], the IC50 was 100 to 1000 nM in assay [1] (competitive ABPP (Table 7)), more than 10000 nM in assay [2] (competitive ABPP (Table 7)) and more than 1000 nM in assay [3] (competitive ABPP (Table 7)).

Regarding `CN(C)C(=O)c1cc(-c2ccccc2)ccc1CN1CCN(C(=O)OC(C(F)(F)F)C(F)(F)F)CC1` [Example 11x, 1,1,1,3,3,3-hexafluoropropan-2-yl 4-[[2-(dimethylcarbamoyl)-4-phenylphenyl]methyl]piperazine-1-carboxylate], the IC50 was 100 to 1000 nM in assay [1] (competitive ABPP (Table 7)), more than 10000 nM in assay [2] (competitive ABPP (Table 7)) and more than 1000 nM in assay [3] (competitive ABPP (Table 7)).

With `O=C(OC(C(F)(F)F)C(F)(F)F)N1CCN(Cc2ccc(N3CCCC3)c(F)c2)CC1` [Example 9aa, 1,1,1,3,3,3-hexafluoropropan-2-yl 4-(3-fluoro-4-(pyrrolidin-1-yl)benzyl)piperazine-1-carboxylate], the IC50 in assay [1] (competitive ABPP (Table 7)) is 100 to 1000 nM; in assay [2] (competitive ABPP (Table 7)), more than 10000 nM; in assay [3] (competitive ABPP (Table 7)), 100 to 1000 nM.

In the case of `O=C(OC(C(F)(F)F)C(F)(F)F)N1CCN(Cc2ccc(Cl)cc2-n2cccn2)CC1` [Example 9ae, 1,1,1,3,3,3-hexafluoropropan-2-yl 4-(4-chloro-2-(1H-pyrazol-1-yl)benzyl)piperazine-1-carboxylate], the figures for the IC50 in assay [1] (competitive ABPP (Table 7)), in assay [2] (competitive ABPP (Table 7)) and in assay [3] (competitive ABPP (Table 7)) were 100 to 1000 nM, more than 10000 nM and 100 to 1000 nM, respectively.

In the case of `O=C(OC(C(F)(F)F)C(F)(F)F)N1CCN(Cc2ccc(Br)cc2Oc2ccccc2)CC1` [Example 9b, 1,1,1,3,3,3-hexafluoropropan-2-yl 4-(4-bromo-2-phenoxybenzyl)piperazine-1-carboxylate], the IC50 in assay [1] (competitive ABPP) was less than 100 nM; in assay [2] (competitive ABPP), more than 10000 nM; in assay [3] (competitive ABPP) it was 100 to 1000 nM.

In the case of `O=C(OC(C(F)(F)F)C(F)(F)F)N1CCN(Cc2ccc(N3CCOCC3)cc2F)CC1` [Example 9a, 1,1,1,3,3,3-hexafluoropropan-2-yl 4-(2-fluoro-4-morpholinobenzyl)piperazine-1-carboxylate], the results for the IC50 in assay [1] (competitive ABPP (Table 7)), in assay [2] (competitive ABPP (Table 7)) and in assay [3] (competitive ABPP (Table 7)) were 100 to 1000 nM, more than 10000 nM and 100 to 1000 nM, respectively.

For the compound `CC(=O)N[C@H]1CCN(c2cc(Cl)ccc2CN2CCN(C(=O)OC(C(F)(F)F)C(F)(F)F)CC2)C1` [Example 9bb, (S)-1,1,1,3,3,3-hexafluoropropan-2-yl 4-(2-(3-acetamidopyrrolidin-1-yl)-4-chlorobenzyl)piperazine-1-carboxylate], the IC50 in assay [1] (competitive ABPP (Table 7)) is less than 100 nM; in assay [2] (competitive ABPP (Table 7)), more than 10000 nM; in assay [3] (competitive ABPP (Table 7)) it was more than 1000 nM.

With `Cc1cc(-c2ccccc2)ccc1CN1CCN(C(=O)OC(C(F)(F)F)C(F)(F)F)CC1` [Example 11q, 1,1,1,3,3,3-hexafluoropropan-2-yl 4-[(2-methyl-4-phenylphenyl)methyl]piperazine-1-carboxylate], the IC50 in assay [1] (competitive ABPP (Table 7)) is 100 to 1000 nM; in assay [2] (competitive ABPP (Table 7)) it was more than 10000 nM; in assay [3] (competitive ABPP (Table 7)) it was more than 1000 nM.

As for `O=C(OC(C(F)(F)F)C(F)(F)F)N1CCN(Cc2ccc(C(=O)N3CCC3)cc2Cl)CC1` [Example 9be, 1,1,1,3,3,3-hexafluoropropan-2-yl 4-(4-(azetidine-1-carbonyl)-2-chlorobenzyl)piperazine-1-carboxylate], the values for the IC50 in assay [1] (competitive ABPP (Table 7)), in assay [2] (competitive ABPP (Table 7)) and in assay [3] (competitive ABPP (Table 7)) were 100 to 1000 nM, more than 10000 nM and 100 to 1000 nM, respectively.

Regarding `O=C(OC(C(F)(F)F)C(F)(F)F)N1CCN(Cc2cccc(F)c2N2CCCC2)CC1` [Example 9as, 1,1,1,3,3,3-hexafluoropropan-2-yl 4-(3-fluoro-2-(pyrrolidin-1-yl)benzyl)piperazine-1-carboxylate], the IC50 in assay [1] (competitive ABPP (Table 7)) was 100 to 1000 nM; in assay [2] (competitive ABPP (Table 7)), more than 10000 nM; in assay [3] (competitive ABPP (Table 7)) it was more than 1000 nM.

Turning to `CC(C)n1cc(CN2CCN(C(=O)OC(C(F)(F)F)C(F)(F)F)CC2)c(-c2ccccc2)n1` [Example 10h, 1,1,1,3,3,3-hexafluoropropan-2-yl 4-[[3-phenyl-1-(propan-2-yl)-1H-pyrazol-4-yl]methyl]piperazine-1-carboxylate], the values for the IC50 in assay [1] (competitive ABPP (Table 7)), in assay [2] (competitive ABPP (Table 7)) and in assay [3] (competitive ABPP (Table 7)) were 100 to 1000 nM, more than 10000 nM and 100 to 1000 nM, respectively.

With `O=C(OC(C(F)(F)F)C(F)(F)F)N1CCN(Cc2ccc(N3CCCC3)cc2Cl)CC1` [Example 9ab, 1,1,1,3,3,3-hexafluoropropan-2-yl 4-[[2-chloro-4-(pyrrolidin-1-yl)phenyl]methyl]piperazine-1-carboxylate], the IC50 in assay [1] (competitive ABPP (Table 7)) was 100 to 1000 nM; in assay [2] (competitive ABPP (Table 7)), more than 10000 nM; in assay [3] (competitive ABPP (Table 7)), more than 1000 nM.

`O=C(OC(C(F)(F)F)C(F)(F)F)N1CCN(Cc2ccc(-n3cccn3)c(F)c2)CC1` [Example 9az, 1,1,1,3,3,3-hexafluoropropan-2-yl 4-(3-fluoro-4-(1H-pyrazol-1-yl)benzyl)piperazine-1-carboxylate]: the IC50 in assay [1] (competitive ABPP (Table 7)) is 100 to 1000 nM; in assay [2] (competitive ABPP (Table 7)), more than 10000 nM; in assay [3] (competitive ABPP (Table 7)), 100 to 1000 nM.

Consider `O=C(OC(C(F)(F)F)C(F)(F)F)N1CCN(Cc2ccc(N3CCOCC3)c(Cl)c2)CC1` [Example 9h, 1,1,1,3,3,3-hexafluoropropan-2-yl 4-(3-chloro-4-morpholinobenzyl)piperazine-1-carboxylate], for which the figures for the IC50 in assay [1] (competitive ABPP (Table 7)), in assay [2] (competitive ABPP (Table 7)) and in assay [3] (competitive ABPP (Table 7)) were 100 to 1000 nM, more than 10000 nM and 100 to 1000 nM, respectively.

In the case of `O=C(OC(C(F)(F)F)C(F)(F)F)N1CCN(Cc2ccc(N3CCCC3)cc2)CC1` [Example 9g, 1,1,1,3,3,3-hexafluoropropan-2-yl 4-(4-(pyrrolidin-1-yl)benzyl)piperazine-1-carboxylate], the IC50 in assay [1] (competitive ABPP (Table 7)) was 100 to 1000 nM; in assay [2] (competitive ABPP (Table 7)), more than 10000 nM; in assay [3] (competitive ABPP (Table 7)) it was more than 1000 nM.

For `O=C(O)C(OC(=O)N1CCN(C(c2ccc(Cl)cc2)c2ccc(Cl)cc2)CC1)C(F)(F)F` (stereo not drawn) [Example 6i, 2-((4-(bis(4-chlorophenyl)methyl)piperazine-1-carbonyl)oxy)-3,3,3-trifluoropropanoic acid], the IC50 in assay [1] (competitive ABPP) was more than 1000 nM; in assay [2] (competitive ABPP), more than 10000 nM; in assay [3] (competitive ABPP), more than 1000 nM.

As for `O=C(OC(C(F)(F)F)C(F)(F)F)N1CCN(Cc2ccc(N3CCOCC3)cc2)CC1` [Example 9f, 1,1,1,3,3,3-hexafluoropropan-2-yl 4-(4-morpholinobenzyl)piperazine-1-carboxylate], the IC50 is 100 to 1000 nM in assay [1] (competitive ABPP (Table 7)), more than 10000 nM in assay [2] (competitive ABPP (Table 7)) and 100 to 1000 nM in assay [3] (competitive ABPP (Table 7)).
